In patent publication US20250195498A1, “INHIBITOR OF CELLULAR PURINE NUCLEOTIDE SALVAGE PATHWAY ENZYME FOR USE IN THE TREATMENT AND/OR PREVENTION OF HELICOBACTER PYLORI INFECTION AND/OR DISEASE ASSOCIATED WITH SUCH INFECTION AND PHARMACEUTICAL COMPOSITION COMPRISING THE SAME” (UNIWERSYTET WARSZAWSKI, priority 2022, published 2025):
Where two headings read alike, the source gives them in different places.

How the values were obtained:
[1] = target: T1, PNP from E. coli (Escherichia coli, UniProt P0ABP8); experiment: Inhibition of PNP from E. coli; format: biochemical; settings: previous work of the inventors
T1 sequence (P0ABP8 2-239): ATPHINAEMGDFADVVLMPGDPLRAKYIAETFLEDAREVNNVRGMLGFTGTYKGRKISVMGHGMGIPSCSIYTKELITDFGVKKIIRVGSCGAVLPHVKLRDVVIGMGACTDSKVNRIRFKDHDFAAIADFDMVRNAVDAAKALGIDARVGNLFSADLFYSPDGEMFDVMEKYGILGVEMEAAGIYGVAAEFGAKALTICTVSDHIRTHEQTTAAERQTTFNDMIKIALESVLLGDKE

[2] = test system: H. pylori strain 26695; experiment: Growth curve method / MIC in liquid culture, strain 26695; format: cell-based, Helicobacter pylori; settings: 2.5 mM; strain not stated, method of Example 3
Experimental: The representative PNP inhibitor from H. pylori included in this study was immucillin A. The experiment was conducted using the growth curve method (two-fold serial dilutions in liquid medium). The tested H. pylori strains were cultured in Petri dishes with BHI solid medium supplemented with 10% FBS and 1% H. pylori Selective Supplement antibiotic kit, in anaerostats under microaerophilic conditions (5% 02, 10% CO2, 85% N2) at 37° C. for 3 days. Liquid culture of H. pylori was conducted overnight with shaking at 37° C. under microaerophilic conditions in BHI medium supplemented with 10% FBS and 1% H. pylori Selective Supplement antibiotic kit. Subsequently, for the essential experiment of determining the minimum inhibitory concentration (MIC), double strengthened liquid BHI medium was prepared, that is, supplemented with 20% FBS and a 2% set of H. pylori Selective Supplement antibiotics.
Bacterial proliferation inhibition experiments were carried out in 24-deep-well 2 ml flat-bottomed plates at a solution volume per well of 0.5 ml. In a single well, double strengthened (relative to the concentration planned for testing) solutions of the test inhibitor and double strengthened liquid BHI medium inoculated with H. pylori (10^4-10^5 CFU/ml in the final volume in the well, corresponding to the optical density of the culture OD600=0.05) were mixed together in a 1:1 ratio.
Kanamycin at a concentration of 25 μg/ml (Irie et al., 1997) was used as a positive control, while Mili-Q deionized water and BHI medium not inoculated with bacteria were used as negative controls. Plates were shaken at 37° C., under microaerophilic conditions. […] After 24 hours, the OD600 of samples containing the negative control, i.e. with Mili-Q deionized water, was about 1.2-1.4, corresponding to a bacterial concentration of about […].
In addition, the method proposed by Knezevic et al. (2018) was used to check whether the observed OD600 was from live bacterial cells. For this purpose, an equal volume of Christensen's double strength urea broth (that is, containing twice the concentration of all components) was added to the wells after incubation, and the plates were additionally incubated for 4 hours in an oxygen atmosphere at 37° C. During incubation, in wells with urease produced by live bacteria, urea is converted to ammonia and carbon dioxide, changing the pH of the solution and thus the colour of the phenol red indicator contained in the medium (from orange to purple).
All experiments were performed in triplicate.
The experiments were carried out using the growth curve method as described in Example 3, and the results obtained for two of the compounds tested are shown in FIG. 5. As the water solubility of the compounds tested, with the exception of 2,6-diCl-Pu, is relatively poor, two experiments were carried out: the first with the maximum concentration possible under the experimental conditions in aqueous solution with a small admixture of DMSO, and the second with higher concentrations that led to partial precipitation of the compound.
The antibacterial activity of two compounds, mefloquine (in the form of hydrochloride) and quinine, described in the literature as potent in vitro inhibitors of the PNP enzyme from Plasmodium falciparum (Dziekan et al., 2019), was tested. Using a two-fold serial dilution method in liquid medium (as described in Example 3), the MIC values for mefloquine and quinine were determined against clinical H. pylori strains resistant to MTZ, CLR and MTZ+CLR (M26, M91, M92 and M93), as well as the reference H. pylori strain 26695. Four clinical H. pylori strains isolated from adults, from primary infections (the subjects had never previously been treated against H. pylori infection) were tested. These strains come from the collection of the Department of Microbiology of the Medical University of Wroclaw and were obtained due to collaboration with Prof. Grażyna Gościniak, MD, PhD. […]

[3] = target: T2, human PNP (Homo sapiens, UniProt P00491); settings: Bzowska et al., 2000; cited from earlier work
T2 sequence (P00491 1-289): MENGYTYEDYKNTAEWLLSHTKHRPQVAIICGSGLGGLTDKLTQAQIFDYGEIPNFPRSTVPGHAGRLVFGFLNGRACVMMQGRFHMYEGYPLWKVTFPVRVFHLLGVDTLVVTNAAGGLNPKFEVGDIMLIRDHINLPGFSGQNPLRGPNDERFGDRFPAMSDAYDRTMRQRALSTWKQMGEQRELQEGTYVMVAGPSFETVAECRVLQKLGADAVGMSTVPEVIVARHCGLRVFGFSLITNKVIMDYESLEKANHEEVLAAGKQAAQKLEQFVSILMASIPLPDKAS

[4] = target: T1, PNP from E. coli; settings: read-out: inhibition constant; cited from earlier work
[5] = target: T3, PNP from H. pylori strain 26695 (Helicobacter pylori, UniProt P56463); settings: formycins; Wojtyś et al., 2021; read-out: inhibition constant; cited from earlier work
T3 construct: made in house; host or cells: E. coli
T3 sequence (P56463 whole entry): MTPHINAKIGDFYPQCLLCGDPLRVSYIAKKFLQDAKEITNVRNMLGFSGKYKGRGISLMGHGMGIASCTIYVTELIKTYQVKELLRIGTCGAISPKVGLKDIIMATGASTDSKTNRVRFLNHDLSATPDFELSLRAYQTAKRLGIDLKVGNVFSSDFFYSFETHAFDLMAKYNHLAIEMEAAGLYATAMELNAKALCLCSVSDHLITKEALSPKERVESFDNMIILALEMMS

[6] = target: T3, PNP from H. pylori strain 26695; experiment: Inhibition of PNP from H. pylori, spectrophotometric phosphorolysis assay; format: biochemical; settings: formycins; kinetic methods of Example 1; read-out: inhibition constant
Source text: The specific activity of PNP is usually determined using inosine as a substrate, in an assay in which the phosphorolysis product, hypoxanthine, is oxidized to uric acid in a reaction catalysed by xanthine oxidase. However, in the inhibition assay of PNP from H. pylori strain 26695, 7-methylguanosine (m^7Guo) and guanosine (Guo) were used as nucleoside substrates to avoid potential inhibition of xanthine oxidase by the test compounds. Phosphorolysis of these two substrates can be observed using a direct spectrophotometric method in a known manner.
Enzymatic activity was studied in a quartz cuvette with an optical path length of 1 cm or 0.5 cm. The absorbance of the reaction mixture, at the observation wavelength, never exceeded 1.2. The reaction volume was 1 ml or 1.4 ml in cuvettes with optical path lengths of 1 cm and 0.5 cm, respectively. The reaction mixture contained 50 mM Hepes/NaOH buffer, pH 7.0, 50 mM phosphate buffer, pH 7.0 (unless otherwise indicated), nucleoside substrate and inhibitor (with the latter not added to the reference/control reactions). Reactions were usually initiated by adding the enzyme to a cuvette containing the other reaction components. However, in cases where possible slow formation of an inhibitor-enzyme complex was checked, a second variant was also used involving incubation of the enzyme in a reaction mixture containing the inhibitor but lacking the substrate, 7-methylguanosine, and initiation of the reaction by adding this substrate.
In order to determine the inhibition constants and determine the molecular mechanism of inhibition, equations describing different mechanisms of inhibition were fitted to the obtained experimental data. GraphPad Prism 8 program was used. The model best describing the obtained data was selected based on the sum of squares of deviations using the F test for models with different number of parameters and the Akaike criterion (AIC) for models with the same number of parameters.
The following equations were used to describe competitive inhibition, characterized by the inhibition constant Kic, [1], uncompetitive, characterized by the inhibition constant Kiu, [2], non-competitive, characterized by the inhibition constant Kin, [3], and mixed, characterized by the inhibition constants Kiu and Kic, [4] (Segel, 1993):
The last equation can also be represented in the following form, as used by GraphPad Prism software, where Kiu=alpha Kic:
Immucillin A was chosen as the most promising one for potential pharmacological use in combating H. pylori infection because immucillin A has an amino substituent at position 6 of the 9-dazapurine ring, while PNP found in the human body requires a substituent at this position having electron-pairs-hydrogen bond acceptors, such as a substituent in the form of a keto group, to strongly bind the ligand. According to the invention, it is therefore believed that immucillin A will not interact with the host PNP, and thus allow selective inhibition of the PNP from H. pylori. Using the methods described above, the effect of immucillin A on the rate of the 7-methylguanosine (m^7Guo) phosphorolysis reaction catalysed by PNP from H. pylori was examined (FIG. 1). Since it is known (Schramm, 2018) that immucillins form a strongly bound complex with the enzyme relatively slowly, reactions were initiated by adding the substrate, m^7Guo, to a cuvette in which the enzyme was incubated with the inhibitor, as described in Example 1.
Data analysis was also performed as described in this Example. The range of substrate concentrations tested was 10-200 μM or 10-280 μM (shown in FIG. 4), and the range of inhibitor concentrations was chosen according to the observed degree of inhibition of the reaction, in order to obtain a significant degree of inhibition that allows determination of the inhibition mechanism and determination of inhibition constants (see FIG. 4). […]

With `Cn1cnc2c([C@@H]3O[C@H](CO)C(O)[C@@H]3O)nnc-2c1N` (some centres unmarked) [6-methylformycin A] the “stronger inhibition than formycin A” value [1] was 10 fold.

For `Nc1ncnc2c([C@@H]3O[C@H](CO)[C@@H](O)[C@H]3O)[nH]nc12` [formycin A], the “inhibition of H. pylori growth (% of the growth observed without the inhibitor)” value [2] is listed as 50%, the “inhibition of human PNP” value [3] is listed as “not an inhibitor” and the Ki [4] is listed as roughly 5 µM. The Ki [5] was 14 µM and the Ki [6] was 14 µM.

In the case of `O=c1[nH]cnc2c([C@@H]3O[C@H](CO)[C@@H](O)[C@H]3O)n[nH]c12` [formycin B], the “inhibition of H. pylori growth (% of the growth observed without the inhibitor)” value [2] is listed as “very weak inhibition”, the “inhibition of human PNP” value [3] is listed as “very weak inhibitor” and the Ki [4] is listed as roughly 5 µM. For the same compound, the Ki [5] was 1 µM and the Ki [6] was 1 µM.
